The values below come from paper PMC6141879, “How Does the Sweet Violet (Viola odorata L.) Fight Pathogens and Pests – Cyclotides as a Comprehensive Plant Host Defense System” (Frontiers in Plant Science, 2018).

Each structure is given as a SMILES string. Values after ≈ are worked out from the molar mass of the structure shown. Where a SMILES comes first, the peptide text is derived from it. Bridges are numbered along the chain shown (N, C = ends). Some results are limits rather than exact numbers.

As usually defined, the MIC is the least concentration at which growth counts as inhibited. The term EC50 denotes the concentration needed to bring the measured effect to its halfway point.

Series [1] concerns Alternaria alternata. As to conditions: 72 h.
Series [2] relates to Pectobacterium atrosepticum SCRI 1043. The conditions noted are these: 24 h.
Series [3] deals with Fusarium graminearum. The conditions noted are these: 48 h.
Series [4] relates to F. oxysporum. Kind of series: Cyclotide stability assay in F. oxysporum culture. Format: in vitro ADME, Fusarium oxysporum. The conditions noted are these: 5 days old F. oxysporum culture (3000 spores in 150 μl 24 g l^-1 PDB), 5 μg cyO2 per well, 3 days, HPLC-UV 280 nm AUC relative to time 0, mean of triplicates, unaltered molecular mass. On the procedure:
Freshly harvested F. oxysporum spores were grown in microplates (3000 spores in 150 μl of 24 g l^-1 PDB per well) on a rotary shaker. After 5 days of incubation, 5 μg of cyO2 in 10 μl of Milli-Q water was added to each well. Samples of the medium and mycelia were collected in Eppendorf tubes immediately after adding cyO2 (time 0) and after incubation with the cyclotide for 2, 4, 8h, 1, 2, and 3 days. The samples were freeze-dried, crushed with a pestle, and extracted with 200 μl of buffer B for 4 h on the rotary shaker. After centrifugation, the supernatant was collected, freeze-dried and reconstituted in buffer A for analysis by HPLC-UV-ESI-MS. HPLC was performed over 18 min using an LC-20 UFLC system (Shimadzu, Japan) with photodiode array detector (PDA) and a Waters (Milford, MA) XTerra MS C18 HPLC column (2.1 × 50 mm, with a particle size of 2.5 μm) at a flow rate of 0.5 ml min^-1 with a linear gradient from 5% to 60% ACN and 0.1% formic acid in water. ESI-MS detection was used to identify the cyO2 peak and to detect modifications of the peptide that may have been introduced by the fungus. For each incubation time, the peaks in the 280 nm UV chromatogram corresponding to cyO2 were integrated, and the mean area under the curve (AUC) for each incubation time was computed from independent triplicates. […]

For series [5], the system named is Colletotrichum utrechtense. The conditions noted are these: 72 h.
Series [6] has as its system Mycosphaerella fragariae. As to conditions: 48 h.
Series [7] in a line: Liposome leakage assay, fungal membrane model. The conditions noted are these: read-out: EC50 of liposome permeabilization (carboxyfluorescein leakage); S. cerevisiae polar lipid extract:ergosterol 7:3 liposomes, Tris buffer, 45 min, % of Triton X-100 leakage, triplicate.
Series [8] relates to Fusarium culmorum. The conditions noted are these: 48 h.
In series [9] the test system is Dickeya dadantii strain 3937. As to conditions: 24 h.
For series [10], the system named is Fusarium oxysporum. As to conditions: 0 h.

For the molecule `CC[C@H](C)[C@@H]1NC(=O)[C@H](C)NC(=O)[C@H](CO)NC(=O)[C@H](CO)NC(=O)[C@H]([C@@H](C)CC)NC(=O)[C@@H]2CSSC[C@@H]3NC(=O)[C@H](C(C)C)NC(=O)[C@H](CCCCN)NC(=O)[C@H](CO)NC(=O)[C@H](CCCCN)NC(=O)[C@@H]4CSSC[C@H](NC(=O)[C@H](CO)NC(=O)[C@H](CCC(=O)O)NC(=O)CNC(=O)[C@H](CSSC[C@H](NC(=O)CNC1=O)C(=O)N[C@@H](CO)C(=O)N4)NC(=O)[C@@H]1CCCN1C(=O)[C@H]([C@@H](C)CC)NC(=O)CNC(=O)[C@H](CC(N)=O)NC(=O)[C@H](CCCNC(=N)N)NC(=O)[C@H](Cc1ccc(O)cc1)NC3=O)C(=O)N[C@@H](C(C)C)C(=O)N[C@@H](Cc1c[nH]c3ccccc13)C(=O)N[C@@H]([C@@H](C)CC)C(=O)N1CCC[C@H]1C(=O)N2` [cyO2, cycloviolacin O2] (cyclo(AIGCSCKSKVCYRNGIPCGESCVWIPCISS); disulfide 4-18, 6-22, 11-27 (inferred); ring closure inferred), the MIC was 1.5 µM (≈ 4.71 µg/mL) in series [1]; 100 µM (≈ 314 µg/mL) in series [2]; 6.25 µM (≈ 19.6 µg/mL) in series [3]; 6.25 µM (≈ 19.6 µg/mL) in [5]; above 25 µM in series [6]; 1.5 µM (≈ 4.71 µg/mL) in series [8]. In [9], the MIC is 75 µM (≈ 236 µg/mL). Also, in series [4], the “initially added amount recovered after co-culture with F. oxysporum” value is around 100%. Also, the EC50 in [7] was 0.072 µM. Further, the “MIC at the inoculum used for immunogold labeling” value in series [10] amounted to 80 µM.
